Assays:
[1] = Solubility of FDCA in water as a function of magnesium chloride concentration; assay type: physicochemical; conditions: magnesium chloride solutions in water, stirred 24 h at 21.8° C. and 48.8° C., filtrate analysed by HPLC; values only in FIG. 3
Experimental: Magnesium chloride solutions in water were prepared by dissolving magnesium chloride hexahydrate in water. To each solution (30 g) solid FDCA was added and the mixture was stirred for 24 h at 21.8° C. After stirring a sample was taken and filtered by means of a 0.45 micron filter. The clear filtrate was analysed on FDCA content by means of HPLC. The experiment was repeated at 48.8° C.

[2] = Saturation concentration of MgFDC solution; assay type: physicochemical; conditions: solution at 20° C., as anhydrate
Experimental: The HCl was added over a period of about 1 hour and the final pH was 1.5. […] The solid FDCA was filtered off and washed with water. The concentration of 4 wt. % was chosen as it is the saturation concentration at 20° C.

saturation concentration [2] [wt. %]	Compound	solubility of FDCA [1]
	O=C(O)c1ccc(C(=O)O)o1 [FDCA, furan-2,5-dicarboxylic acid]	depends strongly on temperature and on the concentration of magnesium chloride
4	O=C([O-])c1ccc(C(=O)[O-])o1.[Mg+2] [MgFDC, magnesium furan-2,5-dicarboxylate]	

From patent US10118908B2, “Method for manufacturing furan-2,5-dicarboxylic acid (FDCA) from a solid salt” (PURAC BIOCHEM BV, priority 2015, dated 2018)
